Reference: ChEMBL document CHEMBL1201862, “PubChem BioAssay data set” (2004)
Several values for one entry are separate records, joined by “and”; a condition that tells them apart may be missing. Identical values can stand only once. Activity calls are given as the source filed them.

Experiments:
Format in all cases: functional
[1] = biological target: T1, Sphingosine 1-phosphate receptor 4 (Homo sapiens, UniProt O95977); assay: Late-stage fluorescence dose response cell-based assay to identify agonists of the Sphingosine 1-Phosphate Receptor 4 (S1P4): purchased compounds EC50. [Related pubchem assays (depositor defined):AID1509, AID1523, AID1563, AID1686, AID1701, AID1801]
T1 sequence (O95977 whole entry): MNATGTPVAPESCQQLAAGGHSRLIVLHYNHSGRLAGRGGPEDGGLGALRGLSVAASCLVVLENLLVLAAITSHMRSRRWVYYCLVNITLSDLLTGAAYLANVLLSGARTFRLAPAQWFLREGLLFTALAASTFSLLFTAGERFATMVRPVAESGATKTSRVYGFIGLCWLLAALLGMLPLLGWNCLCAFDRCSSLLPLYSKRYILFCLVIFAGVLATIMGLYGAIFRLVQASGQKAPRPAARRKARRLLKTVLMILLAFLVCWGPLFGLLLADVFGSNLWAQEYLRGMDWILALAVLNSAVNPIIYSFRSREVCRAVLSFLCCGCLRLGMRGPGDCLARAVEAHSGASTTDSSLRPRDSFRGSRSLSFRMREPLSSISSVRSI

Coagulation factor XII = Coagulation factor XII (Homo sapiens, UniProt P00748);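 note: activated factor XIIa alpha cleaving a fluorogenic AMC peptide substrate; inhibitor potency from loss of enzyme activity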
[2] = biological target: Melanin-concentrating hormone receptor 1 (Homo sapiens, UniProt Q99705); assay: Fluorescence-based counterscreen for antagonists of the G-protein coupled receptor 7 (GPR7): cell-based high throughput dose response assay to identify antagonists of the melanin-concentrating hormone receptor 1 (MCHR1).
Mucolipin-3 = biological target: T2, Mucolipin-3 (Homo sapiens, UniProt Q8TDD5); assay: Fluorescence counterscreen assay for […] agonists: dose response cell-based high-throughput screening assay to identify agonists of the transient receptor potential channel ML3 (TRPML3). [Related pubchem assays: 1424, 1448 ]
T2 sequence (Q8TDD5 whole entry): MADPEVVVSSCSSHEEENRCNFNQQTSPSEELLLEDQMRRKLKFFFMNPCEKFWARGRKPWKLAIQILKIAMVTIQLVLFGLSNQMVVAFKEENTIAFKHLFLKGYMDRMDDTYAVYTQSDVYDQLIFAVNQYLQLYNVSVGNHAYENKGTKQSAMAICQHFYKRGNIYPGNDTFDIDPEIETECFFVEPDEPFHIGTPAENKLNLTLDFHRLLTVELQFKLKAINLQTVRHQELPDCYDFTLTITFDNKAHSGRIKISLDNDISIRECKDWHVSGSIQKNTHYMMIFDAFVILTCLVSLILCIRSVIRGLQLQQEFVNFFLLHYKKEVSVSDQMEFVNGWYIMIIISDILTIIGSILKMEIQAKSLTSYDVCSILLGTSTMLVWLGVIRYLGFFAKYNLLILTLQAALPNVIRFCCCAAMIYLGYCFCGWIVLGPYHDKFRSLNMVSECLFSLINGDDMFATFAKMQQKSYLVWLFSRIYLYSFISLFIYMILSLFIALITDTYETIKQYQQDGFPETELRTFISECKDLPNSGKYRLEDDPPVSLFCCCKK

[3] = biological target: T3, Neuropeptides B/W receptor type 1 (Homo sapiens, UniProt P48145); assay: Fluorescence-based dose response cell-based high throughput screening assay to identify antagonists of the G-protein coupled receptor 7 (GPR7). [Related pubchem assays: 1952 (Screening assay (GPR7 antagonists).), 1880 (Summary AID.)]
T3 sequence (P48145 whole entry): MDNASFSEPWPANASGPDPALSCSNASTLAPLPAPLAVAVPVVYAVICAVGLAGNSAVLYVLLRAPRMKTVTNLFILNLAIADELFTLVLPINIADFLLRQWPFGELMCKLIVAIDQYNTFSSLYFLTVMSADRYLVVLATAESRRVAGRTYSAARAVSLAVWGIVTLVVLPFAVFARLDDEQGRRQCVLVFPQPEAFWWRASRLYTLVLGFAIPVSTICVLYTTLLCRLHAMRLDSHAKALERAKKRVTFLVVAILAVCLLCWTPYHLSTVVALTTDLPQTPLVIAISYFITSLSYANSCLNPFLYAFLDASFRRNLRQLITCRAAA

Ion channel NompC = Ion channel NompC (Danio rerio, UniProt Q7T1G6); assay: Dose response cell-based high-throughput screening assay for agonists of the transient receptor potential channel N1 (TRPN1). [Related pubchem assays (depositor defined):AID1424, AID1448]
[4] = biological target: T4, Rac GTPase-activating protein 1 (Homo sapiens, UniProt Q9H0H5); assay: MgcRacGAP GTPase-activating activity inhibitors, confirmation, biochemical, ADP Hunter fluorescence, primary and confirmatory (AID 624330)
T4 sequence (Q9H0H5 whole entry): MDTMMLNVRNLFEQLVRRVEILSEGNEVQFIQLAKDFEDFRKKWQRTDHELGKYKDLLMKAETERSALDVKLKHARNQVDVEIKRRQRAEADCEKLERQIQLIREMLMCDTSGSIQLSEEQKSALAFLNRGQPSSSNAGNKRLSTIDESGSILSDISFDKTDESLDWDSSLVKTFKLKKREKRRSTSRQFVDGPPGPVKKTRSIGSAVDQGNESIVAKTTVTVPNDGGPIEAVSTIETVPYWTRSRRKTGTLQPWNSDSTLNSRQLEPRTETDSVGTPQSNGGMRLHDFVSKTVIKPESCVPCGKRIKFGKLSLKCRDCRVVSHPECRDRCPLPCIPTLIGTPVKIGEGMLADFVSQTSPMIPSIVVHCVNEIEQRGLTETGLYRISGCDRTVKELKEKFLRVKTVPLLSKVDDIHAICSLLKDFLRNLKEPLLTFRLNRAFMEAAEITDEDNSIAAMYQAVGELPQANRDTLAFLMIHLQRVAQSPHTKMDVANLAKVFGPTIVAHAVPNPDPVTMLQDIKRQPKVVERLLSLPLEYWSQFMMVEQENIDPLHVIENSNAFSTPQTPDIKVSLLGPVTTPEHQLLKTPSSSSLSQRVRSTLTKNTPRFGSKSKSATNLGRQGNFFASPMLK

[5] = biological target: Induced myeloid leukemia cell differentiation protein Mcl-1 (Homo sapiens, UniProt Q07820)
[6] = biological target: T5, Ubiquitin-conjugating enzyme E2 N (Homo sapiens, UniProt P61088)
T5 sequence (P61088 whole entry): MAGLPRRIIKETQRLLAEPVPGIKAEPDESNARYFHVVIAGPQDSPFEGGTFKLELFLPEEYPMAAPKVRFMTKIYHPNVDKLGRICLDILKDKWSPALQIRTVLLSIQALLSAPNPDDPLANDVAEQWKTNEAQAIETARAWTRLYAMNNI

[7] = biological target: T5, Ubiquitin-conjugating enzyme E2 N; remark: listed apart in the source
[8] = biological target: Delta-type opioid receptor (Homo sapiens, UniProt P41143); assay: Counterscreen for agonists of heterodimerization of the mu 1 (OPRM1) and delta 1 (OPRD1) opioid receptors: Luminescence-based cell-based high throughput dose response assay to identify agonists of OPRD1 homodimerization. [Related pubchem assays (depositor defined):AID504326, AID504355, AID504692, AID504904, AID504905]
[9] = Fluorescence-based cell-based high throughput dose response assay for inhibitors of the interaction of nucleotide-binding oligomerization domain containing 2 (NOD2) and the receptor-interacting serine-threonine kinase 2 (RIPK2).; details: Homo sapiens
Bcl-2-related protein A1 = biological target: T6, Bcl-2-related protein A1 (Mus musculus, UniProt Q07440);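 note: confirmatory dose–response counterscreen on Bfl-1, used to check hits from a UBC13 polyubiquitin inhibitor campaign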
T6 sequence (Q07440 whole entry): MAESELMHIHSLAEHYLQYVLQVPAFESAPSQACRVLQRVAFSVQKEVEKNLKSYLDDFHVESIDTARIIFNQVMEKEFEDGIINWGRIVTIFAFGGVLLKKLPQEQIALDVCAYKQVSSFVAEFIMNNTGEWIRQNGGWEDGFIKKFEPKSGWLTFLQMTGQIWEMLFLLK

[10] = biological target: 5-hydroxytryptamine receptor 5A (Homo sapiens, UniProt P47898); assay: Counterscreen for agonists of OPRM1-OPRD1 heterodimerization: luminescence-based cell-based high throughput dose response assay to identify agonists of 5-hydroxytryptamine (serotonin) 5A receptor (HTR5A). [Related pubchem assays (depositor defined):AID504326, AID504355, AID504692, AID504904, AID504905]
Mu-type opioid receptor = Mu-type opioid receptor (Homo sapiens, UniProt P35372); assay: Counterscreen for agonists of heterodimerization of the mu 1 (OPRM1) and delta 1 (OPRD1) opioid receptors: Luminescence-based cell-based high throughput dose response assay to identify agonists of OPRM1 homodimerization.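 Note: U2OS cells expressing OPRM1 and beta-arrestin as split beta-galactosidase partners.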
[11] = biological target: T7, Type-1 angiotensin II receptor (Homo sapiens, UniProt P30556); assay: AT1 receptor agonists, dose response, selectivity assay for APJ receptor agonist project, cell-based, uHTS hits (AID 488865);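 note: beta-arrestin recruitment to AT1 measured by enzyme fragment complementation luminescence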
T7 sequence (P30556 whole entry): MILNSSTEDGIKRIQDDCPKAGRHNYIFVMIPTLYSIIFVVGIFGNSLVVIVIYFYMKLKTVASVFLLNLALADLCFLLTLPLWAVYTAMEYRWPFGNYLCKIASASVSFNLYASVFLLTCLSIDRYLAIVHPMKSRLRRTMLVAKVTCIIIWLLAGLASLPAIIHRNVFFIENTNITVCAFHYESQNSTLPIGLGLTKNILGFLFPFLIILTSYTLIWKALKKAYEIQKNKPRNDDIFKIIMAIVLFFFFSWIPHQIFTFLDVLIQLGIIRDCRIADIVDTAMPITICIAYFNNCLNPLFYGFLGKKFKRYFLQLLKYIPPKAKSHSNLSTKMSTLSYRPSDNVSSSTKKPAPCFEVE

Sequence of Coagulation factor XII (P00748 20-372 limits assumed): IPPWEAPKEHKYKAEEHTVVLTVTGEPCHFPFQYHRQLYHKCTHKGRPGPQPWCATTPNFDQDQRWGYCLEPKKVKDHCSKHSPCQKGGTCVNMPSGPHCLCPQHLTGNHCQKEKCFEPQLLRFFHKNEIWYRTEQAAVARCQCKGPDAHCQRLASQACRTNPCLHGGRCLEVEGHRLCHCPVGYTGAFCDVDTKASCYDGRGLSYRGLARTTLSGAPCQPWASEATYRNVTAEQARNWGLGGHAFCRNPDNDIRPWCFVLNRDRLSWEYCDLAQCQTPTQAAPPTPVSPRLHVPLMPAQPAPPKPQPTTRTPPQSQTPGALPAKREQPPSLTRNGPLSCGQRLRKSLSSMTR
Sequence of Coagulation factor XII (P00748 373-615 limits assumed): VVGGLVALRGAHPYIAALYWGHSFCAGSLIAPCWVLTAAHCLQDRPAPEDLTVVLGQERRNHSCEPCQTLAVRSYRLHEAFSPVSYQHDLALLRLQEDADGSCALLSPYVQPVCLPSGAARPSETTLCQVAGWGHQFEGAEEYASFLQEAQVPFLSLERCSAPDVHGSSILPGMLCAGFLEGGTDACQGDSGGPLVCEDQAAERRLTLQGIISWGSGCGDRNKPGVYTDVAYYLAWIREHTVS
Sequence of Ion channel NompC (Q7T1G6 whole entry): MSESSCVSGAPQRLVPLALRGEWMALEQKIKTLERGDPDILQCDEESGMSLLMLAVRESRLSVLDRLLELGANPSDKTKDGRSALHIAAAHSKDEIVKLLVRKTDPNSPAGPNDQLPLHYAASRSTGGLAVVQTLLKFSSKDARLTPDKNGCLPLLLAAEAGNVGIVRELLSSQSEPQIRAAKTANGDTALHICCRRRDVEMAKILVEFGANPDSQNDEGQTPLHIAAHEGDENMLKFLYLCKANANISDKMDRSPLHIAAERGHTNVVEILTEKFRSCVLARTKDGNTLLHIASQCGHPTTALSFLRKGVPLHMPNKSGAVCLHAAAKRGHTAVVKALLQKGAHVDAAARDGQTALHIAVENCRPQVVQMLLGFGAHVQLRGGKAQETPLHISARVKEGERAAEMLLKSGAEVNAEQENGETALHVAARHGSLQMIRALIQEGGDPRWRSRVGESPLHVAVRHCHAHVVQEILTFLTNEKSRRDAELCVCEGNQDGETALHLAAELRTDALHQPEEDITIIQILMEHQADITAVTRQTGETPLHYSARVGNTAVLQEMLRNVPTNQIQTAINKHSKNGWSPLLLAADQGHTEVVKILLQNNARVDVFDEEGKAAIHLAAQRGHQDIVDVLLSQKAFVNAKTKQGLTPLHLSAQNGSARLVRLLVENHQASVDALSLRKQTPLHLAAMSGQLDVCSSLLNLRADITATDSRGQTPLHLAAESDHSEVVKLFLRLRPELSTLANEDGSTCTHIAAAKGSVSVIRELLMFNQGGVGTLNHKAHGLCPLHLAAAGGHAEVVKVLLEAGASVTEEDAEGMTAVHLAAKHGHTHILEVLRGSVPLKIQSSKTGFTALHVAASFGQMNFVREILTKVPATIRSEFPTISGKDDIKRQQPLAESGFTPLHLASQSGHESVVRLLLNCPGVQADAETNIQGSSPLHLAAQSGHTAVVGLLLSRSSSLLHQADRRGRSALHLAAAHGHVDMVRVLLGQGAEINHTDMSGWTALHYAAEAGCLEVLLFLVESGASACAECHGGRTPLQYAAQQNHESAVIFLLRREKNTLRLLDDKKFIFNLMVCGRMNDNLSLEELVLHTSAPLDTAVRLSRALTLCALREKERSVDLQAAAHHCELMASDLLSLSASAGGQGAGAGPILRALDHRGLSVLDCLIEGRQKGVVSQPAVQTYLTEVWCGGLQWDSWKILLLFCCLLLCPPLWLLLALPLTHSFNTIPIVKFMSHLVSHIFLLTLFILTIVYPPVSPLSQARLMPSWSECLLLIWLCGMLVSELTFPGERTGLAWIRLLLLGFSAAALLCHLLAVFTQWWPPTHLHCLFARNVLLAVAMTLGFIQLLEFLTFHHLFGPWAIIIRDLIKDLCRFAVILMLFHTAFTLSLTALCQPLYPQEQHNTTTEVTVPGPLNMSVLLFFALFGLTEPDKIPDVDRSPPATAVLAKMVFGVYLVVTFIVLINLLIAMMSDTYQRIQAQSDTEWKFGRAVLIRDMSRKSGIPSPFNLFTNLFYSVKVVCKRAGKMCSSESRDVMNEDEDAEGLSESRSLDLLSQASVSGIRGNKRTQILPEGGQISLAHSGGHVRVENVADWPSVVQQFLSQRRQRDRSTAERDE
Sequence of 5-hydroxytryptamine receptor 5A (P47898 whole entry): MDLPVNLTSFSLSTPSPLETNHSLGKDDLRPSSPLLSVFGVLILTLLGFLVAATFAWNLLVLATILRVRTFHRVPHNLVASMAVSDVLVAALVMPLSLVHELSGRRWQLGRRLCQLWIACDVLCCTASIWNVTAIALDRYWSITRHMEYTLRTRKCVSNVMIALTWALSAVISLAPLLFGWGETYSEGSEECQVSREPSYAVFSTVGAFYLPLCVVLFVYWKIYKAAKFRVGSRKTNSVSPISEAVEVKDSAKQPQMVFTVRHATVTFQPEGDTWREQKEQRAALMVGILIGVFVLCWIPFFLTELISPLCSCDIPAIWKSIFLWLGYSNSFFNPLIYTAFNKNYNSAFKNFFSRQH
Sequence of Induced myeloid leukemia cell differentiation protein Mcl-1 (Q07820 whole entry): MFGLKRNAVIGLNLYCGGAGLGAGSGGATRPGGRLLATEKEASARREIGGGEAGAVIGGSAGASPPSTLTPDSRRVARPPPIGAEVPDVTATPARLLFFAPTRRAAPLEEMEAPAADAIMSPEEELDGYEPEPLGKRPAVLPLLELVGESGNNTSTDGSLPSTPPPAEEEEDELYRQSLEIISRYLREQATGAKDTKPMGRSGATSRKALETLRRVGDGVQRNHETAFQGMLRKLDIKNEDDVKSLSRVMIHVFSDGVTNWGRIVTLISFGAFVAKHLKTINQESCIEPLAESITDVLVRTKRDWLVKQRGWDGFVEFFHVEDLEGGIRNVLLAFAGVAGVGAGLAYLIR
Sequence of Delta-type opioid receptor (P41143 whole entry, the tested form may be a part): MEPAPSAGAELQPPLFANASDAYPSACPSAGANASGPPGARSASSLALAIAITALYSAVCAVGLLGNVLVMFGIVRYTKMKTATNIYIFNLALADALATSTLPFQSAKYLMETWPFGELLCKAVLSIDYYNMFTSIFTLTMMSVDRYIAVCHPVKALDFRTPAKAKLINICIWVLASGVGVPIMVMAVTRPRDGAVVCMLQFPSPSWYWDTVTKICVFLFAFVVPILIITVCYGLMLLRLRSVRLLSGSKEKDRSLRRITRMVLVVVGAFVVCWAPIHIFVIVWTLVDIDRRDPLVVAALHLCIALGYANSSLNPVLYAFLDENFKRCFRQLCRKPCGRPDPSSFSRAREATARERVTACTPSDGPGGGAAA
Sequence of Melanin-concentrating hormone receptor 1 (Q99705 whole entry): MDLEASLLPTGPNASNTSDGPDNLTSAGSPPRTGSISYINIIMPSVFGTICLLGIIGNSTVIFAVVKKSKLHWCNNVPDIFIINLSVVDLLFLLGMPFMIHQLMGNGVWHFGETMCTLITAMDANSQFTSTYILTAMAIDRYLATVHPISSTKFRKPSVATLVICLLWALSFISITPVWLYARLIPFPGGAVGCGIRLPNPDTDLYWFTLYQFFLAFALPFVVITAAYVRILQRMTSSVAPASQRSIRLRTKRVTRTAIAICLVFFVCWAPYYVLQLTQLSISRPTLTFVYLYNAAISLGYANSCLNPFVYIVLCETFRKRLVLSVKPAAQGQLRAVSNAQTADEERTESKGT
Sequence of Mu-type opioid receptor (P35372 whole entry, the tested form may be a part): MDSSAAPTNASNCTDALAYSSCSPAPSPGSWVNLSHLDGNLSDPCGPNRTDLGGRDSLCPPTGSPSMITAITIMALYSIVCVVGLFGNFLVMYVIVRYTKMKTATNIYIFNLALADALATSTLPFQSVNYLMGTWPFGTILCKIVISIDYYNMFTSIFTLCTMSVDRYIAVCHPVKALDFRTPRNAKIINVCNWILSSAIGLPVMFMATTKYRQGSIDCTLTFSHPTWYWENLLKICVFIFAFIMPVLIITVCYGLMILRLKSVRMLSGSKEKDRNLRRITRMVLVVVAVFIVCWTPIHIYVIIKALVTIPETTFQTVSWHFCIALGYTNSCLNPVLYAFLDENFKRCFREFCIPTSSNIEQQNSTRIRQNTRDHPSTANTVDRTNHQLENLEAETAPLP

With CCNC(=O)NC(=O)C(C)OC(=O)c1c(C)nn(Cc2ccccc2Cl)c1Cl (stereo not given) the EC50 [1] was 1.5 µM (active) and 2.5 µM (active).
For Cc1ccc(OCC(=O)NCCc2ccc(Cl)cc2Cl)c([N+](=O)[O-])n1, the EC50 [1] was > 50 µM (inactive).
With COc1ccccc1CN1CCNC(=O)C1CC(=O)N(C)Cc1cnccn1 (stereo not given) the IC50 (Coagulation factor XII) was > 50 µM (inactive).
In the case of O=C(CN1C(=O)C2C3CC(C(Br)C3Br)C2C1=O)N1CCN(Cc2ccccc2)CC1 (stereo not given), the IC50 [2] is reported as 20.7 µM (not active), the EC50 (Mucolipin-3) is reported as > 29.9 µM (not active) and the IC50 [3] is reported as 4.18 µM (active). The EC50 (Ion channel NompC) was 16.9 µM (inactive).
In the case of CC(=O)c1sc(NC(=O)COc2ccc(Cl)cc2C)nc1C, the IC50 (Coagulation factor XII) is reported as > 50 µM (inactive).
For O=C1/C(=C\c2ccc(O)cc2)SC(=S)N1/N=C/c1ccc(O)cc1, the EC50 (Mucolipin-3) was > 29.9 µM (not active), the IC50 [4] was 105 µM (active) and the IC50 [5] was 2.48 µM (active). The EC50 (Ion channel NompC) was 4.9 µM (active).
In the case of CCc1ccc2nc(N(CCCN(C)C)C(=O)c3ccc(S(=O)(=O)N4CCc5ccccc5C4)cc3)sc2c1, the IC50 [6] is reported as 4.49 µM (active), the IC50 [7] is reported as 4.58 µM (active) and the EC50 [8] is reported as > 92.5 µM (inactive). For the same molecule, the IC50 [9] was 80 µM (inactive), the IC50 (Bcl-2-related protein A1) was > 20 µM (inactive) and the EC50 [10] was > 92.5 µM (inactive). The EC50 (Mu-type opioid receptor) was > 92.5 µM (inactive) and the EC50 [11] was > 100 µM (inactive).
